Consider three molecules from ChEMBL document CHEMBL5291721, “A preclinical secondary pharmacology resource illuminates target-adverse drug reaction associations of marketed drugs” (Nat Commun, 2023).

For one assay, the target named is Acetylcholinesterase (Homo sapiens, UniProt P22303). It counts as functional.
Assay [1] addresses T1, Alpha-2C adrenergic receptor (Homo sapiens, UniProt P18825).
T1 sequence (P18825 whole entry): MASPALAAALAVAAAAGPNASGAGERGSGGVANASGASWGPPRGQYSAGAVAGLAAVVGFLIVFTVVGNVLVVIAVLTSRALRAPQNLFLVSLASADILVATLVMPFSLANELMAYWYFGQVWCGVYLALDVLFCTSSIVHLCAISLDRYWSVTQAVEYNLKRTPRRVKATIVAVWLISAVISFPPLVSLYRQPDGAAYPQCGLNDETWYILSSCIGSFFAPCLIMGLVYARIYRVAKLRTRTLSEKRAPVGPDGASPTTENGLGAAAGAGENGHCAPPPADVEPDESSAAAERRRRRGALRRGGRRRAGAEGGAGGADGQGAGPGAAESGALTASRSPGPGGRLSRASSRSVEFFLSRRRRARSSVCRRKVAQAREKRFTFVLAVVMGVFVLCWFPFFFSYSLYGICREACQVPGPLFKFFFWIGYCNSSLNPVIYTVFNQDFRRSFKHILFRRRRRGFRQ
Type of assay: functional.
Further: assay procedure not described here.

Acetylcholinesterase, sequence (P22303 whole entry): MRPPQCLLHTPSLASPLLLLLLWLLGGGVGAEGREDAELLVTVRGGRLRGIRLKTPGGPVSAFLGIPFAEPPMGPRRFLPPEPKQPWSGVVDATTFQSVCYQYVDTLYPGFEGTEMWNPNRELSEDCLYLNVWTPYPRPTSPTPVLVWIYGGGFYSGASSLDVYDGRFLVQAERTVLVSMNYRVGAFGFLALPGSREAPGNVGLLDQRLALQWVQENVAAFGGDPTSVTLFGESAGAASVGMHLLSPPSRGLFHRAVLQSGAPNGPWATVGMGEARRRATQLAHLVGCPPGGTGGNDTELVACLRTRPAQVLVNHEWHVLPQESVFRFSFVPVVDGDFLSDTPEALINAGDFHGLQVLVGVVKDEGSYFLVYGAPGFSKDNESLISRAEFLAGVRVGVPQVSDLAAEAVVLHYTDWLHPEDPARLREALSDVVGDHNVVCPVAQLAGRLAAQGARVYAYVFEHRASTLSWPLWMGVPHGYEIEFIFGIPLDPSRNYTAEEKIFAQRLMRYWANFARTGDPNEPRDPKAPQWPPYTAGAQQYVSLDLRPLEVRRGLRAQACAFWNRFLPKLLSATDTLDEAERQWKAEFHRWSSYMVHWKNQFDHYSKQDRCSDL

`CN1C[C@H](CNC(=O)OCc2ccccc2)C[C@@H]2c3cccc4c3c(cn4C)C[C@H]21` [METERGOLINE] registered an AC50 on Acetylcholinesterase of 1.1 µM.

`Cc1[nH]cnc1CN1CCc2c(c3ccccc3n2C)C1=O` [ALOSETRON]: in assay [1], the AC50 was found to be 9.3 µM.

For the molecule `C=CC(=O)N1CCC[C@@H](n2nc(-c3ccc(Oc4ccccc4)cc3)c3c(N)ncnc32)C1` [IBRUTINIB], the AC50 at Acetylcholinesterase is greater than 30 µM.
